Results on one compound are retold here after article PMC9394284, “Discovery of Novel Dual Adenosine A2A and A1 Receptor Antagonists with 1H-Pyrazolo[3,4-d]pyrimidin-6-amine Core Scaffold as Anti-Parkinson’s Disease Agents” (Pharmaceuticals, 2022).

One series deals with T1, hERG (Homo sapiens, UniProt Q12809).
T1 construct: host or cells: HEK cells stably expressing hERG
The series can be described thus: hERG manual patch clamp in hERG-expressing HEK cells. The format is cell-based. Particulars: read-out: hERG inhibition IC50. The procedure: hERG (human-ether-a-go-go) liability was investigated in an hERG-expressing HEK cell line using the manual patch clamp method to assess the potential cardiotoxicity of 11o.
hERG ion channel-blocking profile of acute exposure to 11o was performed in stably expressing HEK cells at Nova Research Laboratories (New Orleans, LA, USA). Briefly, cloned equivalent of the human IKr, hERG, was used. Cells were obtained from Cytogentrics Bioscience GmbH (Jachim-Jungius-Strafe 9, 18,059 Rostock, Germany). Internal and external recording solutions as well as data acquisition and analysis were as previously described.

Another series concerns the target A2A adenosine receptor (Homo sapiens, UniProt P29274). Description: cyclic AMP HTRF functional assay, HEK-293 (A2A). It is filed as cell-based. The conditions noted are these: HEK-293 cells. The method, then:
Next, the functional activity of 11o against A1 and A2A adenosine receptors was evaluated using c-AMP assay in CHO-K1 (A1) and HEK-293 (A2A) cells.
For functional studies, A1 and A2A receptor cyclic AMP HTRF (homogeneous time resolved fluorescence) assay was performed at EuroscreenFast (Charleroi, Belgium) using CHO-K1 (A1) and HEK293 (A2A) stable cell line with CPA (A1) and NECA (A2A) as reference agonist and DPCPX (A1) and ZM241385 (A2A) as reference antagonist compound.

For a further series, the target named is T2, A3 receptors (Homo sapiens, UniProt P0DMS8).
T2 construct: purchased PerkinElmer ES-012-M
T2 sequence (P0DMS8 1-318): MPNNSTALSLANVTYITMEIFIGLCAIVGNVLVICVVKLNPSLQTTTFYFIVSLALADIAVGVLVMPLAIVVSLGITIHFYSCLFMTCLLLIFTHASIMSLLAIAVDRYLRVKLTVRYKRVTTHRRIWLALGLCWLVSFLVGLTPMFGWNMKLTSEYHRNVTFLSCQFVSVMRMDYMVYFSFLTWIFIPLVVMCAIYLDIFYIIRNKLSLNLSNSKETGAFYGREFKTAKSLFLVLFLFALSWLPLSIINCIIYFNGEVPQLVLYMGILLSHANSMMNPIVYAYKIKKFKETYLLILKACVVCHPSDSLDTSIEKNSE
The series can be described thus: radioligand binding to human A3 receptors, CHO-K1 membranes, [125I]AB-MECA. The method, then: The radioligand-binding assays for adenosine receptors were performed at Eurofins Discovery Services (Panlabs, Taiwan). Briefly, stock solutions of the compounds were prepared in DMSO and further diluted with the incubation buffer to the desired concentration. Final DMSO concentrations in the assay were 1.0%. For adenosine A1 screening, a 10 μg aliquots of membrane preparations from human recombinant CHO-K1 cells stably expressing A1 receptors (CHO-K1-hA1AR clone3, EPDST, R200510) were incubated with 1 nM [^3H]DPCPX in incubation buffer (20 mM HEPES, pH 7.4, 10 mM MgCl2, 100 mM NaCl 1.40 nM) for 90 min at 25 °C. Nonspecific binding was estimated in the presence of 100 μM R(-)-PIA. Membranes were filtered and washed 3 times and the filters were counted to determine specifically bound [^3H]DPCPX. Chemical compounds were screened at 10 μM. For A2A screening, membrane preparations from human recombinant HEK-293 cells stably expressing A2A receptors (PerkinElmer, RBHA2AM) were incubated with 0.05 μM [^3H]CGS-21680 in incubation buffer (50 mM Tris-HCl, pH 7.4, 10 mM MgCl2, 1 mM EDTA, 2 U/mL Adenosine Deaminase) for 90 min at 25 °C. Nonspecific binding was estimated in the presence of 50.0 μM NECA. Membranes were filtered and washed 3 times and the filters were counted to determine [^3H]CGS-21680 specifically bound. […] Membranes were filtered and washed 3 times and the filters were counted to determine [^3H]MRS1754 specifically bound. […]
IC50 values were determined by a nonlinear, least-squares regression analysis using MathIQ^TM (ID Business Solutions Ltd., Guildford, UK). Where inhibition constants (Ki) were presented, the Ki values were calculated using Cheng and Prusoff equation [18] using the observed IC50 of the compound, the concentration of radioligand employed in the assay, and the historical values for the KD of the ligand (obtained experimentally at Eurofins Panlabs, Inc.). The Hill coefficient (nH), which defines the slope of the competitive binding curve, was calculated using MathIQ^TM.

The next series deals with beagle dogs. Description: maximum tolerated dose, single oral administration, dog. Particulars: in vivo, po. The method, then: (§1) Rat and dog MTD studies were performed at Frontage Laboratories Inc following testing facility’s SOPs. All procedures described were reviewed and approved by the Institutional Animal Care and Use Committee (IACUC) at Frontage Laboratories Inc.
(§2) For dog MTD study, male and female beagle dogs (Canis familiaris) of 1.3 to 1.4 years of age were from Frontage Laboratories’ test facility stock colony, originally procured from Marshall BioResources (North Rose, NY, USA). The health status of the animals was reviewed by a staff veterinarian. Data collected on animals prior to release to study were maintained as testing facility records. Same dogs were used for each dose event. Animals received a single dose of 11o in 0.5% methyl cellulose via oral gavage starting from 50 mg/kg dose level in 5 mL/kg dose volume. Subsequent doses occurred 3 or 4 days following the previous dose and were increased based on findings from the previous dosing(s). The procedure continued until four dosing events occurred. Animals were fasted overnight prior to each dose administration with food provided approximately 4 h post-dose. Animals were observed once in the morning and once in the afternoon throughout the study for clinical observations. Body weights were measured on the day prior to dose administration. Data were collected and reported electronically using Provantis^TM (Instem LSS Ltd., Staffordshire, UK).

Assay in series [1]: as above
The conditions noted are these: both sexes, in vivo, single oral administration, male and female beagle dogs. The method, then:
as §1, §2

The mark [2] stands for this setting: average of duplicate experiments.

pIC50, pKi: −log10 of the molar value. Some results are limits rather than exact numbers.

Chain of A2A adenosine receptor (P29274 whole entry): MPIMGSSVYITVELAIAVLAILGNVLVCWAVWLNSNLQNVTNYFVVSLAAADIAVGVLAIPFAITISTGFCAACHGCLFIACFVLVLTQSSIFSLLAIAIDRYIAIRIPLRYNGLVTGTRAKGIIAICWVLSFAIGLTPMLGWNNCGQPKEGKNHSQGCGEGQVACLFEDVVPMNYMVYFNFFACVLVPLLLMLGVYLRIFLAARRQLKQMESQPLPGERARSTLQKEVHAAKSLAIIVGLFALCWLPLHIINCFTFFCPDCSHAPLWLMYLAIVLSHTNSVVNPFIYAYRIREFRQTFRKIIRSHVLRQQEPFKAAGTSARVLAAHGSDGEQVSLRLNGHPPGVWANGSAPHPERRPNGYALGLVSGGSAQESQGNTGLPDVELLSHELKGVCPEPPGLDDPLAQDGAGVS
T1 sequence (Q12809 whole entry): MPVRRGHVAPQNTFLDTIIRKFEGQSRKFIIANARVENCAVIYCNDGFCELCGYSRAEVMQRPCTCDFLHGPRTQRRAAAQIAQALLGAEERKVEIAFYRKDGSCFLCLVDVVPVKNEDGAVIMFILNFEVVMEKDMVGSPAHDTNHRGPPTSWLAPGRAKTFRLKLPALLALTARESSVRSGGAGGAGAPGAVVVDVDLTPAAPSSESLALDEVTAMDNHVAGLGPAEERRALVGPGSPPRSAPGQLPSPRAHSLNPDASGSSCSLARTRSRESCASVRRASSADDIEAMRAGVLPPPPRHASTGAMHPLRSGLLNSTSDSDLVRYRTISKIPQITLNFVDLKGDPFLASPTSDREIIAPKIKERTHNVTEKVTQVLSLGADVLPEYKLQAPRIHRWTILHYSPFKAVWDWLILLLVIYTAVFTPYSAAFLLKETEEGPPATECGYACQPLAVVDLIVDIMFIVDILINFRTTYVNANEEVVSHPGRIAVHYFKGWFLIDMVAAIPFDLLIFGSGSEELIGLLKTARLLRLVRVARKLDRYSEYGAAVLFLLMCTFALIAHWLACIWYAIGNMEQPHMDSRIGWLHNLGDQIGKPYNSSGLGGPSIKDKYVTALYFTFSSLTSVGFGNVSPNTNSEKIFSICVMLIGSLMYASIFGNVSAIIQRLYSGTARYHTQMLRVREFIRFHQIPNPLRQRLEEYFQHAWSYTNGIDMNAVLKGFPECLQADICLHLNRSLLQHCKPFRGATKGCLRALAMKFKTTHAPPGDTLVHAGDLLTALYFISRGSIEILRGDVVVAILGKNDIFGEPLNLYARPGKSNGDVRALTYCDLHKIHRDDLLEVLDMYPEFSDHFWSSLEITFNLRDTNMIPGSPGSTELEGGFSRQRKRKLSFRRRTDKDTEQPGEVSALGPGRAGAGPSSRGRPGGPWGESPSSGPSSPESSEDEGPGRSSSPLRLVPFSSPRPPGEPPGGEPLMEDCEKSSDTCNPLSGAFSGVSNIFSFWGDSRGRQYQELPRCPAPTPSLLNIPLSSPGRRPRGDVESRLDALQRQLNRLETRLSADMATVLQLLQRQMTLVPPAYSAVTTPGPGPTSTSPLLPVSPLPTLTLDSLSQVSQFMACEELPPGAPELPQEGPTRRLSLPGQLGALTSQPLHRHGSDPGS

For `Cc1cc(Cn2ncc3c(-c4cccc(C#N)c4F)nc(N)nc32)ccc1N` [11o, 3-(6-Amino-1-(4-amino-3-methylbenzyl)-1H-pyrazolo[3,4-d]pyrimidin-4-yl)-2-fluorobenzonitrile], the pIC50 on hERG is 3.94; at A2A adenosine receptor (read-out: IC50, A2A functional antagonism (c-AMP)), 6.87; on A3 receptors (setting [2]) it was 5.95. The “functional activity at A2A receptor” value on A2A adenosine receptor is on record as “full antagonism”. Further, the “nH (Hill coefficient), A3” value at A3 receptors is reported as 0.44. At A3 receptors (setting [2]), this compound showed a pKi of 5.98. Also, the “body weight change, female dogs” value in the series on beagle dogs is −6.5%. Also, in the series with beagle dogs, the “body weight change, male dogs” value was −5.7%. Besides, the MTD in series [1] is over 400 mg/kg.
